In patent US8110544B2, “RasGAP derived peptide for selectively killing cancer cells” (Universite de Lausanne, priority 2003, dated 2012):

Key:
p38 MAPKs = experiment: Western blot of phospho-p38 in U2OS cells; format: cell-based, human; conditions: 20 μM peptide
Method: (§1) U2OS cells (2×10^5) were plated in 6 well plates and treated for the indicated periods of time with the indicated combinations of the HW-TAT48-57 or TAT-RasGAP317-326 peptides (at a 20 μM concentration) and cisplatin (at a 30 μM concentration). Positive controls for JNK and p38 activation were obtained following stimulation of the cells with 1 μg/ml anisomycine during 3 hours and with 0.5 M sorbitol for 30 min, respectively. The quantitations depicted under the Western blots were performed on the 12-hour bands and normalized against the positive controls. The results correspond to the mean±standard deviation of three independent experiments. […]

JNK = experiment: Western blot of phospho-JNK in U2OS cells; format: cell-based, human; conditions: 20 μM peptide
Method: as §1

HeLa cells [1] = experiment: Apoptosis (pycnotic nuclei) of HeLa cells transfected with RasGAP constructs and treated with genotoxins; format: cell-based, human; conditions: for potentiation of cisplatin-induced apoptosis in HeLa cells: transfected construct, 0.15 μM cisplatin, apoptosis scored 20 hours later
Method: HeLa cells (2×10^6) were plated in 10-cm-diameter Petri dishes, transfected with 1 μg of GFP-expressing plasmid (to label the transfected cells) together with 2 μg of an empty pcDNA3 plasmid or 2 μg of a pcDNA3 vector encoding fragment N2. One day following the transfection, the cells were incubated for 24 hours with the indicated concentrations of cisplatin, adriamycin or mitoxantrone. The number of GFP-positive cells displaying pycnotic nucleus was then scored.
HeLa cells were transfected as described in FIG. 1 with plasmids endoding the constructs described in FIG. 2A. HeLa cells were then treated or not with 0.15 μM cisplatin and the extent of apoptosis was determined 20 hours later. The results correspond to the mean±standard deviation of three independent determinations. Asterisks denote a significant difference between the cells treated with 0.15 μM cisplatin and the cells without treatment (**, p<0.01; ***, p<0.001).
HeLa and MCF-7 cells were maintained in RPMI 1640 (Sigma; cat. no 8758) containing 10% newborn calf serum (Sigma; cat. no N4637) at 37° C. and 5% CO2. U2OS cells were maintained in DMEM (Sigma; cat. no 5796) containing 15% foetal calf serum (Sigma; cat. no F7524) at 37° C. and 5% CO2. H-Meso-1 cells were maintained in RPMN 1640 containing 10% foetal calf serum at 37° C. and 5% CO2. […] After 8 hours at 37° C. and 5% CO2, the medium was replaced with fresh culture medium and the cells were further incubated for 16-24 hours before being analyzed.
Apoptosis was determined by scoring the number of cells displaying pycnotic nuclei. Nuclei of live cells were labeled with Hoechst 33342 (10 μg/ml final concentration) for about 5 minutes and the cells were then analyzed (at least 400 cells per condition) using an inverted Leica DMIRB microscope equipped with fluorescence and transmitted light optics. […] In this case, the extent of apoptosis was assessed in the transfected cells only. […]

NFκB activity = experiment: NFκB firefly luciferase reporter assay in U2OS cells; format: cell-based, human; conditions: 20 μM peptide or cisplatin, 20 hours
Method: U2OS Cells (1×10^5) were plated in 6 well plates and transfected with 1 μg of a firefly luciferase reporter plasmid for NFκB activity and 0.1 μg of a plasmid encoding the Renilla luciferase. The cells were treated one day later with the indicated concentrations of cisplatin in the absence or in the presence of 20 μM HV-TAT48-57 or TAT-RaSGAP317-326 peptides during 20 hours. The data represent the firefly luciferase activity normalized to the Renilla luciferase activity and expressed as fold increase of the basal NFκB activity obtained in control untreated cells. The results correspond to the mean±standard deviation of three independent determinations. Asterisks denote significant differences between the indicated conditions (**, p<0.01; ***, p<0.001).
U2OS cells were transfected with 1 μg of a firefly luciferase reporter plasmid for NFκB activity, 0.1 μg of a plasmid encoding the Renilla luciferase, 0.5 μg of a GFP-expressing plasmid (to label the transfected cells), 1 μg of a plasmid encoding IκBαΔN2 that inhibit the NFκB pathway or with 1 μg an empty pcDNA3 vector. The cells were incubated one day later with increasing concentrations of cisplatin in the presence of 20 μM HIV-TAT48-57 or 20 μM TAT-RasGAP317-326 for an additional 20 hour period. The cells were then lysed and the NFκB activity assessed as described in panel A, except that the results were expressed as fold increase of the NFκB activity detected in cells incubated with the control HV-TAT48-57 peptide.
Luciferase assay was performed using the Dual-Luciferase® Reporter Assay from Promega (cat. no E1910). […] The firefly luciferase activity was recorded by mixing 20 μl of the lysate with 25 μl of the LARII Reagent and the Renilla luciferase activity was recorded by adding to the previous mix 25 μl of the Stop & Glo Reagent. For each measurement, light emission was quantified during 12 seconds using a Lumat LB 9501 luminometer (Berthold Technologies, Zurich, Switzerland).

HeLa cells [2] = conditions: Yang and Widmann 2001; cited from earlier work

With “GRKKRRQRRR [HIV-TAT48-57, reference compound]” the “activation of p38 MAPK pathway by peptide alone” value (p38 MAPKs) was “neither the control HIV-TAT48-57 peptide nor the TAT-RasGAP317-326 peptide activated these MAPK pathways” and the “activation of JNK pathway by peptide alone” value (JNK) was “neither the control HIV-TAT48-57 peptide nor the TAT-RasGAP317-326 peptide activated these MAPK pathways”.

For “WMWVTNLRTD (listed as Homo sapiens) [317-326, 10 amino acid long peptide expressed from a transfected construct]”, the “potentiation of cisplatin-induced apoptosis in HeLa cells” value (HeLa cells [1]) was “potentiated the ability of cisplatin to kill HeLa cells”.

For N.N.[Cl][Pt][Cl] [cisplatin, reference compound], the “NFkB activation in U2OS cells (single agent)” value (NFκB activity) was “activated”.

B1: SH2 domain: human RasGAP amino acids 158-277, expressed from plasmid SH2.dn3 (protein, UniProt P20936 158-277, looked up, fragment)
chain: SLDGPEYEEEEVAIPLTAPPTNQWYHGKLDRTIAEERLRQAGKSGSYLIRESDRRPGSFVLSFLSQMNVVNHFRIIAMCGDYYIGGRRFSSLSDLIGYYSHVSCLLKGEKLLYPVAPPEP
modifications: SH2 domain
notes: human RasGAP amino acids 158-277, expressed from plasmid SH2.dn3
In the case of B1, the “potentiation of cisplatin-induced apoptosis in HeLa cells” value (HeLa cells [1]) is reported as “did not enhance the ability of cisplatin to kill HeLa cells”.

B2: fragment N2: human RasGAP amino acids 158 to 455, 36 kDa, expressed from plasmid N2.dn3 (protein, UniProt P20936 158-455, looked up, fragment)
chain: SLDGPEYEEEEVAIPLTAPPTNQWYHGKLDRTIAEERLRQAGKSGSYLIRESDRRPGSFVLSFLSQMNVVNHFRIIAMCGDYYIGGRRFSSLSDLIGYYSHVSCLLKGEKLLYPVAPPEPVEDRRRVRAILPYTKVPDTDEISFLKGDMFIVHNELEDGWMWVTNLRTDEQGLIVEDLVEEVGREEDPHEGKIWFHGKISKQEAYNLLMTVGQVCSFLVRPSDNTPGDYSLYFRTNENIQRFKICPTPNNQFMMGGRYYNSIGDIIDHYRKEQIVEGYYLKEPVPMQDQEQVLNDTVD
For B2, the “sensitivity of HeLa cells towards the various drugs relative to control cells” value (HeLa cells [1]; HeLa cells expressing fragment N2 vs empty pcDNA3, cisplatin, adriamycin, mitoxantrone, 24 hours) is given as “at least 10 times” and the “ability of cisplatin to kill the HeLa tumor cell line” value (HeLa cells [2]) is given as “enhances the ability of cisplatin to kill the HeLa tumor cell line”.
